Source: patent US20250145571A1, “AMINO ACID PRODRUGS OF NICORANDIL” (Unicycive Therapeutics, Inc., priority 2023, published 2025)
Read-outs that look alike come from different tables or passages of the source. Blank lines part the entries; values can stand above or below the compound they belong to.

Experiments:
[1] = Plasma stability, human plasma; format: in vitro ADME; details: for half-life at 1 µM / % PCR (at 60 minutes): 37° C., 1 μM; for % PCR (at 60 minutes): parent compound remaining at 60 minutes
Procedure: (§1) Each test compound and assay control (final concentration of 1 μM) were incubated with human plasma or rat plasma at 37° C. for 0.5, 5, 30 and 60 minutes. The reaction was quenched with ice-cold acetonitrile containing internal standard (cetirizine/tolbutamide/telmisartan) following incubation.

[2] = Liver microsomal stability, rat; format: in vitro ADME; details: for Hepatic Extraction Ratio / Predicted Hepatic CL: rat liver microsomes 0.5 mg/mL, 1 μM, NADPH
Procedure: (§2) Each test compound and assay control (final concentration of 1 μM) were incubated with liver microsomes (final protein concentration of 0.5 mg/mL) from rats, dogs or humans at 37° C. in the presence of NADPH for 0.5, 5, 10, 15, 30 and 60 min. The reaction was terminated by adding ice-cold acetonitrile containing internal standard at each time point following incubation. The samples were then centrifuged at 4000 rpm for 10 minutes and the supernatant was analyzed by LC-MS/MS. The predicted hepatic clearance and the hepatic extraction ratio were calculated for the test compounds and the assay control.

[3] = Intestinal microsomal stability, rat; format: in vitro ADME; details: for half-life at 1 µM / microsomal CLint at 1 µM: rat intestinal microsomes 1 mg/mL protein, NADPH, 37° C.; for microsomal CLint at 1 µM: read-out: CLint (μL/min/mg protein)
Procedure: (§3) Each test compound and assay control (final concentration of […]) were incubated with intestinal microsomes (final protein concentration of 1 mg/mL) from rats, dogs or humans at 37° C. in the presence of NADPH for 0.5, 5, 10, 15, 30 and 60 minutes. The reaction was terminated by adding ice-cold acetonitrile containing internal standard (cetirizine/tolbutamide/telmisartan) at each time point following incubation. Samples were then centrifuged at 4000 rpm for 10 minutes and the supernatant was analyzed by LC-MS/MS. The in vitro half-life (t1/2) and intrinsic clearance (CLint) were calculated for the test compounds and the assay control.

[4] = Liver microsomal stability, human; format: in vitro ADME; details: for Hepatic Extraction Ratio / Predicted Hepatic CL: human liver microsomes 0.5 mg/mL, 1 μM, NADPH
Procedure: as §2

[5] = Liver microsomal stability, dog; format: in vitro ADME; details: for Hepatic Extraction Ratio / Predicted Hepatic CL: dog liver microsomes 0.5 mg/mL, 1 μM, NADPH
Procedure: as §2

[6] = Intestinal microsomal stability, human; format: in vitro ADME; details: for half-life at 1 µM / microsomal CLint at 1 µM: human intestinal microsomes 1 mg/mL protein, NADPH, 37° C.; for microsomal CLint at 1 µM: read-out: CLint (μL/min/mg protein)
Procedure: as §3

[7] = Plasma stability, rat plasma; format: in vitro ADME; details: for half-life at 1 µM / % PCR (at 60 minutes): 37° C., 1 μM; for % PCR (at 60 minutes): parent compound remaining at 60 minutes
Procedure: as §1

[8] = rat; for AUClast / Cmax / F (%) / Tmax / t1/2 / AUClast (ng * h/mL) / Cmax (ng/mL) / Median Tmax: male, Sprague-Dawley; for AUClast / Cmax / F (%) / Tmax / t1/2 / AUClast (ng * h/mL) / Cmax (ng/mL) / Median Tmax / increase in AUC from 3 mg/kg to 14 mg/kg (in words) / release of nicorandil in vivo (in words): po
[9] = Intestinal microsomal stability, dog; format: in vitro ADME; details: for half-life at 1 µM / microsomal CLint at 1 µM: dog intestinal microsomes 1 mg/mL protein, NADPH, 37° C.; for microsomal CLint at 1 µM: read-out: CLint (μL/min/mg protein)
Procedure: as §3

[10] = Pharmacokinetic study in rats, single oral dose; details: rat, 0.25% sodium CMC
[11] = compared to nitrate salt of compound 8

SMILES: CCCCCCCCCCCC(=O)OC[n+]1cccc(C(=O)NCCO[N+](=O)[O-])c1.[Cl-] [Compound 10]
half-life at 1 µM [1]: 1.23 min
% PCR (at 60 minutes) [1]: 0%
release in plasma (in words) [1, 11]: rapidly released
Hepatic Extraction Ratio [2]: 0.84
Predicted Hepatic CL [2]: 46 mL/min/kg
stability in liver microsomes (in words) ([2]; rat liver microsomes, compared to nitrate salt of compound 8): unstable
half-life at 1 µM [3]: 26 min
microsomal CLint at 1 µM [3]: 27 µL/min/mg
clearance in intestinal microsomes (in words) ([3]; rat intestinal microsomes, compared to nitrate salt of compound 8 and compounds 11 and 13): high clearance
Hepatic Extraction Ratio [4]: 0.90
Predicted Hepatic CL [4]: 19 mL/min/kg
stability in liver microsomes (in words) ([4]; human liver microsomes, compared to nitrate salt of compound 8): unstable
Hepatic Extraction Ratio [5]: 1.0
Predicted Hepatic CL [5]: 4 mL/min/kg
stability in liver microsomes (in words) ([5]; dog liver microsomes, compared to nitrate salt of compound 8): unstable
half-life at 1 µM [6]: 24 min
microsomal CLint at 1 µM [6]: 29 µL/min/mg
clearance in intestinal microsomes (in words) ([6]; human intestinal microsomes, compared to nitrate salt of compound 8 and compounds 11 and 13): high clearance
half-life at 1 µM [7]: 1.59 min
% PCR (at 60 minutes) [7]: 0%
release in plasma (in words) [7, 11]: rapidly released
AUClast ([8]; in vivo, 3 mg/kg): 5513 ng·h/mL
Cmax ([8]; in vivo, 3 mg/kg): 2226 ng/mL
F (%) ([8]; in vivo, 3 mg/kg): 67%
Tmax ([8]; in vivo, 3 mg/kg): 30 min
t1/2 ([8]; in vivo, 3 mg/kg): 244 min
AUClast (ng * h/mL) ([8]; in vivo, 3 mg/kg, pH 4.5): 26,838 ng * h/mL
Cmax (ng/mL) ([8]; in vivo, 3 mg/kg, pH 4.5): 12,446 ng/mL
Median Tmax ([8]; in vivo, 3 mg/kg, pH 4.5): 15 min
AUClast (ng * h/mL) ([8]; in vivo, 14 mg/kg): 36,526 ng * h/mL
Cmax ([8]; in vivo, 14 mg/kg): 6297 ng/mL
F (%) ([8]; in vivo, 14 mg/kg): 97%
Tmax ([8]; in vivo, 14 mg/kg): 240 min
t1/2 ([8]; in vivo, 14 mg/kg): 164 min
oral bioavailability of nicorandil after oral dosing (in words) ([8]; in vivo): high
increase in AUC from 3 mg/kg to 14 mg/kg (in words) ([8]; in vivo): more than dose proportional
release of nicorandil in vivo (in words) [8]: release nicorandil in vivo
half-life at 1 µM [9]: 47 min
microsomal CLint at 1 µM [9]: 15 µL/min/mg
clearance in intestinal microsomes (in words) ([9]; dog intestinal microsomes, compared to nitrate salt of compound 8 and compounds 11 and 13): high clearance

SMILES: Cc1oc(=O)oc1C[n+]1cccc(C(=O)NCCO[N+](=O)[O-])c1.[Cl-] [Compound 12]
AUClast ([8]; in vivo, 3 mg/kg, pH 4.5): 8893 ng·h/mL
Cmax ([8]; in vivo, 3 mg/kg, pH 4.5): 4065 ng/mL
Median Tmax ([8]; in vivo, 3 mg/kg, pH 4.5): 30 min

SMILES: O=C(NCCO[N+](=O)[O-])c1ccc[n+](COC(=O)N2CCCC2C(=O)O)c1.[Cl-] (stereo not drawn) [Compound 13]
half-life at 1 µM [3]: > 60 min
microsomal CLint at 1 µM [3]: < 6 µL/min/mg
half-life at 1 µM [6]: > 60 min
microsomal CLint at 1 µM [6]: < 6 µL/min/mg
half-life at 1 µM [9]: > 60 min
microsomal CLint at 1 µM [9]: < 6 µL/min/mg

SMILES: C[C@H](NC(=O)OC[n+]1cccc(C(=O)NCCO[N+](=O)[O-])c1)C1CCCCC1.O=[N+]([O-])[O-] [reference compound]
half-life at 1 µM [1]: 31.2 min
% PCR (at 60 minutes) [1]: 28.7%
Hepatic Extraction Ratio [2]: > 0.89
Predicted Hepatic CL [2]: > 49 mL/min/kg
half-life at 1 µM [3]: > 60 min
microsomal CLint at 1 µM [3]: < 6 µL/min/mg
Hepatic Extraction Ratio [4]: 0.71
Predicted Hepatic CL [4]: 15 mL/min/kg
Hepatic Extraction Ratio [5]: 0.84
Predicted Hepatic CL [5]: 26 mL/min/kg
half-life at 1 µM [6]: > 60 min
microsomal CLint at 1 µM [6]: 9 µL/min/mg
half-life at 1 µM [7]: 38.2 min
% PCR (at 60 minutes) [7]: 36.2%
half-life at 1 µM [9]: > 60 min
microsomal CLint at 1 µM [9]: < 6 µL/min/mg
release of nicorandil in vivo (in words) [10]: release nicorandil in vivo

The next lines start with the values.

half-life at 1 µM [3]: > 60 min
microsomal CLint at 1 µM [3]: 8 µL/min/mg
half-life at 1 µM [6]: > 60 min
microsomal CLint at 1 µM [6]: < 6 µL/min/mg
AUClast ([8]; in vivo, 3 mg/kg): 2289 ng·h/mL
Cmax ([8]; in vivo, 3 mg/kg): 1171 ng/mL
F (%) ([8]; in vivo, 3 mg/kg): 28%
Tmax ([8]; in vivo, 3 mg/kg): 15 min
AUClast (ng * h/mL) ([8]; in vivo, 3 mg/kg, pH 4.5): 22,632 ng * h/mL
Cmax (ng/mL) ([8]; in vivo, 3 mg/kg, pH 4.5): 15,223 ng/mL
Median Tmax ([8]; in vivo, 3 mg/kg, pH 4.5): 15 min
AUClast ([8]; in vivo, 14 mg/kg): 27422 ng·h/mL
Cmax ([8]; in vivo, 14 mg/kg): 6245 ng/mL
F (%) ([8]; in vivo, 14 mg/kg): 72%
Tmax ([8]; in vivo, 14 mg/kg): 15 min
increase in AUC from 3 mg/kg to 14 mg/kg (in words) ([8]; in vivo): more than dose proportional
release of nicorandil in vivo (in words) [8]: release nicorandil in vivo
half-life at 1 µM [9]: > 60 min
microsomal CLint at 1 µM [9]: 9 µL/min/mg
SMILES: CCC(C)(C)C(=O)OC[n+]1cccc(C(=O)NCCO[N+](=O)[O-])c1.[Cl-] [Compound 11]

half-life at 1 µM [7]: 18.9 min
% PCR (at 60 minutes) [7]: 11.2%
SMILES: CCOC(=O)[C@H](CCc1ccccc1)N[C@@H](C)C(=O)N1CCC[C@H]1C(=O)O [Enalapril]

half-life at 1 µM [1]: > 60 min
% PCR (at 60 minutes) [1]: 109%
half-life at 1 µM [7]: > 60 min
% PCR (at 60 minutes) [7]: 114%
SMILES: O=C(NCCO[N+](=O)[O-])c1cccnc1 [Nicorandil]

half-life at 1 µM [1]: 21.3 min
% PCR (at 60 minutes) [1]: 9.2%
SMILES: CC(C)[N+](C)(CCOC(=O)C1c2ccccc2Oc2ccccc21)C(C)C [Propantheline Bromide]
